The source made the active and inactive calls. For most assays here, no stated cut-off is given here; in the data, active = IC50 of 20 µM or less and inactive = more.
What was measured:
Estrogen receptor = biological target: T1, Estrogen receptor (Homo sapiens, UniProt P03372);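 further: potency for inhibiting coactivator peptide recruitment to the receptor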
T1 sequence (P03372 whole entry): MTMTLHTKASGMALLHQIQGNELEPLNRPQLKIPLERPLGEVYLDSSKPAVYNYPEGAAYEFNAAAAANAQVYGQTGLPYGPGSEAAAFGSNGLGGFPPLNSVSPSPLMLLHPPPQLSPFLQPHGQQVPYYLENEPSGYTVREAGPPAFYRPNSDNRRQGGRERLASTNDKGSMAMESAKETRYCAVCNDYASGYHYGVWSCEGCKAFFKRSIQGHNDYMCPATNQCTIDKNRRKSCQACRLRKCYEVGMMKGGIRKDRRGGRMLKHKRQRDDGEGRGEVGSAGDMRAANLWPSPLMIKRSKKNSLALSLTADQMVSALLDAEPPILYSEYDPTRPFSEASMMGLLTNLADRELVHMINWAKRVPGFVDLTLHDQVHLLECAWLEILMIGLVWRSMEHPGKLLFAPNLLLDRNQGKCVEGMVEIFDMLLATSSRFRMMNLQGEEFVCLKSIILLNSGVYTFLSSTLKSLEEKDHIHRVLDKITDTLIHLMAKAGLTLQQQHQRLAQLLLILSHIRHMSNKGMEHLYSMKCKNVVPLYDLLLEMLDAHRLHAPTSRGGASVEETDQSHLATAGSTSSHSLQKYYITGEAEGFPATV

[1] = biological target: T2, Small ubiquitin-related modifier 1 (Homo sapiens, UniProt P63165); assay: SUMO1 protein-protein binding blockers, potency – biochemical, FRET, dose response (AID 624383); assay type: functional; conditions: read-out: IC50_Mean
T2 sequence (P63165 whole entry): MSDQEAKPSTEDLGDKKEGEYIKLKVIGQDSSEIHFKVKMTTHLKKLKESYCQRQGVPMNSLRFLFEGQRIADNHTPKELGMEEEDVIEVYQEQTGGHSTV

[2] = biological target: T2, Small ubiquitin-related modifier 1; assay: SUMO1 protein interaction blockers, potency – biochemical, fluorescence polarization, uHTS hits, dose response (AID 624382); assay type: functional; conditions: read-out: IC50_Mean
Fatty acid synthase [3] = biological target: T3, Fatty acid synthase (Homo sapiens, UniProt P49327); assay: inhibition of human FAS-TE enzyme activity – biochemical, endpoint fluorescence intensity, uHTS hits, dose response (AID 624327); assay type: functional;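 further: fluorescence from hydrolysis of an O-methyl fluorescein acyl ester substrate by the enzyme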
T3 sequence (P49327 whole entry): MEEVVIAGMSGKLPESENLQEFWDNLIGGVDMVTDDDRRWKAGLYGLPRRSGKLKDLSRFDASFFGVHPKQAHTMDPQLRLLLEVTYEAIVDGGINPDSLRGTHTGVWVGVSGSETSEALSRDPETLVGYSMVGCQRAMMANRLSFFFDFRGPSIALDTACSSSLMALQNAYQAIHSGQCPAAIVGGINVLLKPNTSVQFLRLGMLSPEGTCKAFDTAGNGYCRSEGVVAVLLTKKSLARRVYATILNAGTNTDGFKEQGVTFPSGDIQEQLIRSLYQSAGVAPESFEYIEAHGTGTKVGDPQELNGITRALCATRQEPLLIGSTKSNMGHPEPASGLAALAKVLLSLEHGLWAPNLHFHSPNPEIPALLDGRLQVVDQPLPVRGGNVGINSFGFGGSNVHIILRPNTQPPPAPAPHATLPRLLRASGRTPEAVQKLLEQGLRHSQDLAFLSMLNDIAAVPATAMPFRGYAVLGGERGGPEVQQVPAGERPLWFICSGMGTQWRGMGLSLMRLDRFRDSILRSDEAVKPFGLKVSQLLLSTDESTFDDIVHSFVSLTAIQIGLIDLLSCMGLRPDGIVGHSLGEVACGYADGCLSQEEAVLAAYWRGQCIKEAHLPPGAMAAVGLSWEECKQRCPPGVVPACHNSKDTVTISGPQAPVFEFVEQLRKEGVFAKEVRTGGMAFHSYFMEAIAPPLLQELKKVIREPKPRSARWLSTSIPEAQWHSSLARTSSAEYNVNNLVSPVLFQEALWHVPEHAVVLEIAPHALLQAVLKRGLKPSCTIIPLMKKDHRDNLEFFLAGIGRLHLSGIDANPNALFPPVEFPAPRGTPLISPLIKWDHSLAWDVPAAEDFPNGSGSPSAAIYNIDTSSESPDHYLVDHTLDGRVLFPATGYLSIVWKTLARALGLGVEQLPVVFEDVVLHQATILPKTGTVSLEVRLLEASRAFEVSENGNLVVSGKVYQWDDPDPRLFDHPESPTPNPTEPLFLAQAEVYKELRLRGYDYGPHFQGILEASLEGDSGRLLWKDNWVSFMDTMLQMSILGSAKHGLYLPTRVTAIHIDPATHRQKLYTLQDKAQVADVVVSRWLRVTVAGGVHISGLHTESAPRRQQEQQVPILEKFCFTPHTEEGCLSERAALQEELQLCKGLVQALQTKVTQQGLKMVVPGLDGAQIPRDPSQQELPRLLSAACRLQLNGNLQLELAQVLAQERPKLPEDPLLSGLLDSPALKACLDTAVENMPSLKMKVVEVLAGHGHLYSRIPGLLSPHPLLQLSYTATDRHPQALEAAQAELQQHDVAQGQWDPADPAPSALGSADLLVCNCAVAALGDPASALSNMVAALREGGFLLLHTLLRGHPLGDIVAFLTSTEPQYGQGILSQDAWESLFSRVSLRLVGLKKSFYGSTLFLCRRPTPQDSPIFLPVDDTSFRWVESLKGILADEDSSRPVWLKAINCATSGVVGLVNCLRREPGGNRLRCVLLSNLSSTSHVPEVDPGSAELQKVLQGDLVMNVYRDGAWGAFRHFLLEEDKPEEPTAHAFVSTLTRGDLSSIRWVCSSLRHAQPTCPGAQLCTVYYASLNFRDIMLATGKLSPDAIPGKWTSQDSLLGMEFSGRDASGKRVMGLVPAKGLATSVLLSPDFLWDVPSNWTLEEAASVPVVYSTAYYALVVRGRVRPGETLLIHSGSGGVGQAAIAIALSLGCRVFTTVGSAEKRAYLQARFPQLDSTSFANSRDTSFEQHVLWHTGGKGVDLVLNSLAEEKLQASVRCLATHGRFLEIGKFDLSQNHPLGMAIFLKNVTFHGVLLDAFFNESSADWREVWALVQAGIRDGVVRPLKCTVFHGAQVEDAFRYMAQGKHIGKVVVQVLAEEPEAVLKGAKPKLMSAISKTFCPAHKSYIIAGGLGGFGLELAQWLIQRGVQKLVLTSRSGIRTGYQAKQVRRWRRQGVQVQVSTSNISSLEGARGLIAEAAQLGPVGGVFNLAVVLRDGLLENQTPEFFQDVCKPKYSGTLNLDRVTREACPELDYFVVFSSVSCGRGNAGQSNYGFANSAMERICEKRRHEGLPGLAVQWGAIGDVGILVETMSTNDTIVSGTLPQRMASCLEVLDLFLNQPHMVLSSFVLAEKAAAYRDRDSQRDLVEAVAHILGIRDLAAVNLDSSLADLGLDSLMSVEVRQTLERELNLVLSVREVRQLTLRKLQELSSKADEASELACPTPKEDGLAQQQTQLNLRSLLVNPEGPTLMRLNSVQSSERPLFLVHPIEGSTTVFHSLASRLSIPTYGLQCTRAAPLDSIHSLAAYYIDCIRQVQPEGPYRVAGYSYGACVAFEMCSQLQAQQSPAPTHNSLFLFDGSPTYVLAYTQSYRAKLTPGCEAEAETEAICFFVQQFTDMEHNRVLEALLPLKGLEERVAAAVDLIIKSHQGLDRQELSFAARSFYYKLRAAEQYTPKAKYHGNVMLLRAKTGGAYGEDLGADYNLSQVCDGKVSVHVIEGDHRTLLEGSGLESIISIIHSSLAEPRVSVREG

Fatty acid synthase [4] = biological target: T3, Fatty acid synthase; assay: inhibition of human FAS-TE enzyme activity – biochemical, kinetic fluorescence intensity, dose response (AID 624326); assay type: functional;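 further: rate of fluorescence rise from hydrolysis of a fluorogenic O-methyl fluorescein ester substrate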
Beta Lactamase = Beta Lactamase (Pseudomonas aeruginosa, UniProt Q932Y6); assay: BLA reporter interference, concentration series – BLA reporter cells, FRET fluorescence, artefact control for NOD2-RIPK2 interaction inhibitor project, dose response (AID 651552); assay type: functional, cell-based
Chain of Beta Lactamase (Q932Y6 whole entry, the tested form may be a part): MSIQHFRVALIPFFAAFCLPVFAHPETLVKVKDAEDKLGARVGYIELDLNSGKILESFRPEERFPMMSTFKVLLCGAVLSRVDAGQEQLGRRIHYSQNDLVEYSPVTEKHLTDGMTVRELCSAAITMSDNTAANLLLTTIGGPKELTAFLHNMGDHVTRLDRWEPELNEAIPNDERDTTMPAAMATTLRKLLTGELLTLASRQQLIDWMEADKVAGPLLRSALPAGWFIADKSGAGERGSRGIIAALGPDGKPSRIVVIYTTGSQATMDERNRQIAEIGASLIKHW

[5] = Fluorescence-based cell-based high throughput dose response assay for inhibitors of the interaction of nucleotide-binding oligomerization domain containing 2 (NOD2) and the receptor-interacting serine-threonine kinase 2 (RIPK2).; assay type: functional; conditions: Homo sapiens

Compound | IC50 (Estrogen receptor) | IC50 [1] | IC50 [2] | IC50 (Fatty acid synthase [3]) | IC50 (Fatty acid synthase [4]) | IC50 (Beta Lactamase) | IC50 [5]
Cc1ccc(-n2nnnc2SCC(=O)Nc2ccc3c(c2)COC3=O)cc1C | 27.1 µM (active) | 8.2 µM (active) | > 66.6 µM (inactive) |  |  |  | 
CCOC(=O)[C@]12Cc3c(cc(OC)c(OC)c3OC)[C@H]1N(C1CCCCC1)C(=O)c1ccccc12 |  |  |  | 8.89 µM (active) | 7.77 µM (active) | 25.5 µM (inactive) | 2.03 µM (active)

Reference: ChEMBL document CHEMBL1201862, “PubChem BioAssay data set” (2004)
